Measurements: publication PMC12199309, “Isolation, structural elucidation, and integrated biological and computational evaluation of antidiabetic labdane diterpenes from Curcuma zedoaria rhizomes” (RSC Advances, 2025)
Like-named read-outs stand apart in the source and are kept apart here.

Assays:
[1] = target: T1, α-Glucosidase (EC 3.2.1.20) (Saccharomyces cerevisiae, UniProt P53341); experiment: biochemical; conditions: for inhibition at 10 µM / inhibition at 25 µM / inhibition at 50 µM / inhibition at 100 µM / inhibition at 1 µM / inhibition at 2.5 µM / inhibition at 5 µM: read-out: Inhibition rate (%)
T1 construct: purchased Sigma Chemical Co. (St. Louis, MO, USA)
T1 sequence (P53341 whole entry): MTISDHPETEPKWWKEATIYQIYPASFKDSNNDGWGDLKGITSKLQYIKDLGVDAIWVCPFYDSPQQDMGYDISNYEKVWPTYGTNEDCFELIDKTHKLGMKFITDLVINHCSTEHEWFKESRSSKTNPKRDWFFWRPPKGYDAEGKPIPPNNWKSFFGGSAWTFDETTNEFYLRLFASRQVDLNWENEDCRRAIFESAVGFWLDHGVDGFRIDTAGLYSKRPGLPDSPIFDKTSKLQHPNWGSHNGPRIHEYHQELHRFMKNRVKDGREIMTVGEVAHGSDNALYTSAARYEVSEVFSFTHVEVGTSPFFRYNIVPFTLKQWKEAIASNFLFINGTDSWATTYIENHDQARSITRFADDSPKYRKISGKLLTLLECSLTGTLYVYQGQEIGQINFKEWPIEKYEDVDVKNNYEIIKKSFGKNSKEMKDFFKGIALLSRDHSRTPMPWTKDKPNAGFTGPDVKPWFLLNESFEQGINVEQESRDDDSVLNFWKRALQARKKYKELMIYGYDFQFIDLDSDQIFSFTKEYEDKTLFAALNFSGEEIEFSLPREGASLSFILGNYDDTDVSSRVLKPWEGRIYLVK
Protocol: Five isolated compounds were examined to assess their inhibitory effect on α-glucosidase at concentrations ranging from 1 to 100 μM. […]
Optical values were conducted on a Shimadzu UV-1800 spectrophotometer (Shimadzu Pte., Ltd, Singapore). IR spectra were measured with a Shimadzu IR-408 infrared spectrometer (Shimadzu Pte., Ltd, Singapore). NMR spectra were acquired on a Bruker Avance III 500 spectrometer Bruker BioSpin AG, Bangkok, (Thailand), with chemical shifts (δ) referenced to deuterated solvents. HR-ESI-MS data were obtained on Bruker micrOTOFQII mass spectrometer (Bruker Singapore Pte., Ltd, Singapore). Column chromatography utilized silica gel 60 (0.06–0.2 mm; Scharlau, Barcelona, Spain) and LiChroprep RP-18 (40–63 μm; Merck KGaA, Darmstadt, Germany). Thin-layer chromatography (TLC) employed Kieselgel 60 F254 or RP-18 F254 plates from Merck KGaA (Darmstadt, Germany). α-Glucosidase (EC 3.2.1.20), derived from Saccharomyces cerevisiae (750 UN), along with p-nitrophenyl-α-D-glucopyranoside, was procured from Sigma Chemical Co. (St. Louis, MO, USA). […] All other chemicals and solvents were of the highest purity or analytical grade.
The inhibitory activity of α-glucosidase was assessed using a modified method based on Kurihara et al.[37] The reaction was initiated by adding 50 μL of 1.5 mM p-nitrophenyl-α-D-glucopyranoside and 50 μL of 0.1 U mL^−1 α-glucosidase in 0.01 M phosphate buffer (pH 7.0) to 625 μL of sample solution. The reaction was conducted at 37 °C for 30 minutes and terminated with 0.1 M Na2CO3. Enzymatic activity was quantified by measuring absorbance at a wavelength of 401 nm. One unit of α-glucosidase activity was defined as the amount of enzyme that liberates […] p-nitrophenol per minute. The IC50 value represented the inhibitor concentration that suppressed 50% of enzyme activity.

[2] = target: T1, α-Glucosidase (EC 3.2.1.20); experiment: biochemical; conditions: read-out: Inhibition rate (%)
[3] = α-glucosidase inhibition, 37 °C, 30 minutes, pH 7.0, read-out: IC50

Structure (SMILES)	IC50 [1]	inhibition at 10 µM [1]	inhibition at 25 µM [1]	inhibition at 50 µM [1]	inhibition at 100 µM [1]	inhibition at 1 µM [1]	inhibition at 2.5 µM [1]	inhibition at 5 µM [1]	IC50 [1, 3]	inhibition at 250 µM [2]
C=C1CCC2C(C)(C)CCCC2(C)C1CC=C(COC(C)=O)C(=O)O (centres unmarked) [CZ1, zedolabdin A]	14.1 µM	29.5 ± 1.8%	81.4 ± 0.5%	96.2 ± 0.4%	98.8 ± 0.4%					
C=C1CCC2C(C)(C)CCCC2(C)C1CC=C(CO)C(=O)O (centres unmarked) [CZ2, (E)-14-hydroxy-15-norlabda-8(17),12-dien-16-oic acid]	25.5 µM	24.6 ± 4.1%	46.3 ± 3.1%	72.4 ± 2%	99.1 ± 2%					
C=C1CC[C@H]2C(C)(C)CCC[C@]2(C)[C@H]1/C=C/C1=C(O)COC1=O [CZ3, zerumin]		73.4 ± 2.3%				6.9 ± 4%	20.8 ± 3.6%	35.2 ± 1.9%	6.2 µM	
C=C1CC[C@H]2C(C)(C)CCC[C@]2(C)[C@H]1CCC1=CC(O)OC1=O (some centres unmarked) [CZ4, coronarin C]		95.4 ± 1.5%				13.7 ± 5.4%	34 ± 0.9%	81 ± 1.7%	3 µM	
C=C1CCC2C(C)(C)CCCC2(C)C1C=CC(=O)O (centres unmarked) [CZ5, (E)-14,15,16-trinorlabda-8(17),11-dien-13-oic acid]	37.6 µM	3.5 ± 3.6%	16.6 ± 3.8%	75.8 ± 4.4%	99.8 ± 0.2%					
C[C@H]1O[C@H](O[C@H]2[C@H](O)[C@@H](O)[C@@H](O[C@H]3[C@H](O)[C@@H](O)C(O)O[C@@H]3CO)O[C@@H]2CO)[C@H](O)[C@@H](O)[C@@H]1N[C@H]1C=C(CO)[C@@H](O)[C@H](O)[C@H]1O (some centres unmarked) [PC, acarbose, reference compound]			8.6 ± 1.1%	19.7 ± 1.3%	32.1 ± 1.7%					66 ± 1.2%
